Results published in patent publication US20240041042A1, “1-(PYRIDYL)-5-AZINYLPYRAZOLE DERIVATIVES, AND THEIR USE FOR CONTROL OF UNDESIRED PLANT GROWTH” (Bayer Aktiengesellschaft, priority 2020, published 2024).

Tests used:
Type in all cases: in vivo
Avena fatua (AVEFA) = assay: Pre-emergence herbicidal action against AVEFA; conditions: 320 g/ha, visual scoring after about 3 weeks vs untreated controls
How it was run: (§1)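 Seeds sown in pots and covered with soil; WP or EC formulations sprayed onto the soil surface at 600 l/ha water with 0.5% additive, at 320 g/ha or lower. Greenhouse growth for about 3 weeks, then visual scoring as % effect against untreated controls (100% = plants dead).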

[1] = system: Abutilon theophrasti (ABUTH); assay: Post-emergence herbicidal action against ABUTH; conditions: 80 g/ha, visual rating about 3 weeks after treatment vs untreated controls (100% = plants have died, 0% = like control plants)
How it was run: (§2)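 Doses of 320 g/ha or lower, suffixes a, b and c marking different dosages, were applied post-emergence at the one-leaf stage in 600 l/ha water with 0.5% additive. Damage was assessed visually after about 3 weeks in the greenhouse.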

[2] = system: Pharbitis purpurea (PHBPU); assay: Post-emergence herbicidal action against PHBPU; conditions: dosage 80 g/ha
How it was run: as §2

[3] = system: Alopecurus myosuroides (ALOMY); assay: Post-emergence herbicidal action against ALOMY; conditions: 80 g/ha, visual rating about 3 weeks after treatment vs untreated controls (100% = plants have died, 0% = like control plants)
How it was run: as §2

[4] = system: Matricaria inodora (MATIN); assay: Pre-emergence herbicidal action against MATIN
How it was run: as §1

Lolium rigidum (LOLRI) = assay: Pre-emergence herbicidal action against LOLRI; conditions: dosage 320 g/ha
How it was run: as §1

[5] = system: Verconica persica (VERPE); assay: Post-emergence herbicidal action against VERPE; conditions: dosage 80 g/ha
How it was run: as §2

Setaria viridis (SETVI) [6] = assay: Pre-emergence herbicidal action against SETVI
How it was run: as §1

[7] = system: Amaranthus retroflexus (AMARE); assay: Pre-emergence herbicidal action against AMARE; conditions: visual scoring after about 3 weeks vs untreated controls
How it was run: as §1

[8] = system: Verconica persica (VERPE); assay: Pre-emergence herbicidal action against VERPE; conditions: dosage 320 g/ha
How it was run: as §1

[9] = system: Polygonum convolvulus (POLCO); assay: Pre-emergence herbicidal action against POLCO
How it was run: as §1

[10] = system: Echinochloa crus-galli (ECHCG); assay: Pre-emergence herbicidal action against ECHCG; conditions: dosage 320 g/ha
How it was run: as §1

Setaria viridis (SETVI) [11] = assay: Post-emergence herbicidal action against SETVI; conditions: dosage 80 g/ha
How it was run: as §2

[12] = system: Alopecurus myosuroides (ALOMY); assay: Pre-emergence herbicidal action against ALOMY; conditions: scored visually after about 3 weeks, 100% = plants have died
How it was run: as §1

Viola tricolor (VIOTR) [13] = assay: Post-emergence herbicidal action against VIOTR; conditions: 80 g/ha
How it was run: as §2

[14] = system: Digitaria sanguinalis (DIGSA); assay: Pre-emergence herbicidal action against DIGSA
Description: Seeds of monocotyledonous and dicotyledonous weed plants and crop plants are placed in plastic or organic planting pots and covered with soil. The compounds of the invention, formulated in the form of wettable powders (WP) or as emulsion concentrates (EC), are then applied to the surface of the covering soil as aqueous suspension or emulsion with addition of 0.5% additive at a water application rate equivalent to 600 l/ha. After the treatment, the pots are placed in a greenhouse and kept under good growth conditions for the trial plants. After about 3 weeks, the effect of the preparations is scored visually in comparison with untreated controls as percentages. For example, 100% activity=the plants have died, 0% activity=like control plants.
Tables A1 to A13 below show the effects of selected compounds of the general formula (I) on various harmful plants and at an application rate corresponding to 320 g/ha or lower, which were obtained by the experimental procedure mentioned above. The appendices “a”, “b” and “c” give differentiation by dosage used with otherwise the same harmful plants tested.

[15] = system: Pharbitis purpurea (PHBPU); assay: Pre-emergence herbicidal action against PHBPU; conditions: dosage 320 g/ha
How it was run: as §1

[16] = system: Polygonum convolvulus (POLCO); assay: Post-emergence herbicidal action against POLCO; conditions: dosage 80 g/ha
How it was run: as §2

Viola tricolor (VIOTR) [17] = assay: Pre-emergence herbicidal action against VIOTR
How it was run: as §1

[18] = system: Digitaria sanguinalis (DIGSA); assay: Post-emergence herbicidal action against DIGSA; conditions: 80 g/ha, visual rating about 3 weeks after treatment
How it was run: as §2

[19] = system: Echinochloa crus-galli (ECHCG); assay: Post-emergence herbicidal action against ECHCG; conditions: dosage 80 g/ha
How it was run: as §2

SMILES: CCOC(=O)COc1nn(-c2ncccc2F)c(-c2ccc(F)nc2)c1Cl [Example I-38]
- Pre-emergence action against AVEFA in % (Avena fatua (AVEFA)): 100%
- Post-emergence action against ABUTH in % [1]: 80%
- Post-emergence action against PHBPU in % [2]: 90%
- Post-emergence action against ALOMY in % [3]: 100%
- Pre-emergence action against MATIN in % ([4]; dosage 80 g/ha): 100%
- Pre-emergence action against MATIN in % ([4]; dosage 320 g/ha): 100%
- Pre-emergence action against LOLRI in % (Lolium rigidum (LOLRI)): 100%
- Post-emergence action against VERPE in % [5]: 80%
- Pre-emergence action against SETVI in % (Setaria viridis (SETVI) [6]; dosage 80 g/ha): 100%
- Pre-emergence action against SETVI in % (Setaria viridis (SETVI) [6]; dosage 320 g/ha): 100%
- Pre-emergence action against AMARE in % ([7]; 80 g/ha): 100%
- Pre-emergence action against AMARE in % ([7]; 320 g/ha): 100%
- Pre-emergence action against VERPE in % [8]: 100%
- Pre-emergence action against POLCO in % ([9]; dosage 80 g/ha): 90%
- Pre-emergence action against POLCO in % ([9]; dosage 320 g/ha): 100%
- Pre-emergence action against ECHCG in % [10]: 100%
- Post-emergence action against SETVI in % (Setaria viridis (SETVI) [11]): 80%
- Pre-emergence action against ALOMY ([12]; 80 g/ha): 100%
- Pre-emergence action against ALOMY ([12]; 320 g/ha): 100%
- Post-emergence action against VIOTR in % (Viola tricolor (VIOTR) [13]): 80%
- Pre-emergence action against DIGSA in % ([14]; 80 g/ha, visual scoring after about 3 weeks vs untreated controls): 100%
- Pre-emergence action against DIGSA in % ([14]; dosage 320 g/ha): 100%
- Pre-emergence action against PHBPU in % [15]: 90%
- Post-emergence action against POLCO in % [16]: 80%
- Pre-emergence action against VIOTR in % (Viola tricolor (VIOTR) [17]; 320 g/ha, Viola tricolor): 100%
- Pre-emergence action against VIOTR in % (Viola tricolor (VIOTR) [17]; dosage 80 g/ha): 100%
- Post-emergence action against DIGSA in % [18]: 90%
- Post-emergence action against ECHCG in % [19]: 90%
